Assay results published in patent US20230085307A1, “PYRIDAZINONE COMPOUND AND HERBICIDE” (NISSAN CHEMICAL CORPORATION, priority 2019, published 2023).

Key:
[1] = tested on: late watergrass; test: Test Example 1: herbicidal activity, application before weed generation under submerged conditions (Table 16, symbol A); format: in vivo, late watergrass (Echinochloa oryzicola); details: 320 g/ha applied herbicide
In short: (§1)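 Submerged Wagner pots (alluvial soil, 4 cm water) sown with weed seeds and planted with 2.5-leaf rice seedlings; emulsifiable concentrate diluted in water applied to water surface on sowing day. Held in greenhouse at 25-30 °C; injury scored 0-5 by herbicidal rate after three weeks.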

[2] = tested on: Japanese bulrush; test: Test Example 1: herbicidal activity, application before weed generation under submerged conditions (Table 16, symbol B); format: in vivo, Japanese bulrush (Schoenoplectus juncoides); details: 320 g/ha applied herbicide
In short: as §1

[3] = tested on: oval-leafed pondweed; test: Test Example 1: herbicidal activity, application before weed generation under submerged conditions (Table 16, symbol C); format: in vivo, oval-leafed pondweed (Monochoria vaginalis); details: 320 g/ha applied herbicide
In short: as §1

[4] = tested on: barnyard grass; test: Test Example 3: herbicidal effect by foliage application, Wagner pot (Table 18, symbol H); format: in vivo, barnyard grass (Echinochloa crus-galli); details: amount of applied herbicide 320 g/ha
In short: (§2)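 Plants were sown in alluvial soil held under 0.1–0.5 cm standing water and grown 14 days in a greenhouse at 25–30 °C. An emulsifiable formulation, water-diluted to the set dose, was then sprayed onto the foliage, and effects were scored three weeks later using previously defined criteria.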

[5] = tested on: Chinese sprangletop; test: Test Example 3: herbicidal effect by foliage application, Wagner pot (Table 18, symbol D); format: in vivo, chinese sprangletop (Leptochloa chinensis); details: amount of applied herbicide 320 g/ha
In short: as §2

[6] = tested on: rice flat sedge; test: Test Example 3: herbicidal effect by foliage application, Wagner pot (Table 18, symbol E); format: in vivo, rice flat sedge (Cyperus iria); details: amount of applied herbicide 320 g/ha
In short: as §2

[7] = tested on: southern crabgrass; test: Test Example 4: herbicidal effect by soil treatment (Table 19, symbol F); format: in vivo, southern crabgrass (Digitaria ciliaris); details: amount of applied herbicide 320 g/ha
In short: (§3)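 Herbicidal effect was rated 3 weeks after treatment, using the scoring criteria of an earlier test. The compound, formulated as an emulsion and diluted in water to a set herbicide amount, had been sprayed uniformly on soil over freshly sown seeds. Growth took place in a greenhouse at 25° C. to 30° C.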

[8] = tested on: green foxtail; test: Test Example 4: herbicidal effect by soil treatment (Table 19, symbol G); format: in vivo, green foxtail (Setaria viridis); details: amount of applied herbicide 320 g/ha
In short: as §3

[9] = tested on: barnyard grass; test: Test Example 4: herbicidal effect by soil treatment (Table 19, symbol H); format: in vivo, barnyard grass (Echinochloa crus-galli); details: amount of applied herbicide 320 g/ha
In short: as §3

[10] = tested on: wild oat; test: Test Example 4: herbicidal effect by soil treatment (Table 19, symbol I); format: in vivo, wild oat (Avena fatua); details: amount of applied herbicide 320 g/ha
In short: as §3

[11] = tested on: blackgrass; test: Test Example 4: herbicidal effect by soil treatment (Table 19, symbol J); format: in vivo, blackgrass (Alopecurus myosuroides); details: amount of applied herbicide 320 g/ha
In short: as §3

[12] = tested on: Italian ryegrass; test: Test Example 4: herbicidal effect by soil treatment (Table 19, symbol K); format: in vivo, Italian ryegrass (Lolium multiflorum); details: amount of applied herbicide 320 g/ha
In short: as §3

[13] = tested on: windgrass; test: Test Example 4: herbicidal effect by soil treatment (Table 19, symbol L); format: in vivo, windgrass (Apera spica-venti); details: amount of applied herbicide 320 g/ha
In short: as §3

[14] = tested on: velvetleaf; test: Test Example 4: herbicidal effect by soil treatment (Table 19, symbol M); format: in vivo, velvetleaf (Abutilon theophrasti); details: amount of applied herbicide 320 g/ha
In short: as §3

[15] = tested on: redroot pigweed; test: Test Example 4: herbicidal effect by soil treatment (Table 19, symbol N); format: in vivo, redroot pigweed (Amaranthus retroflexus); details: amount of applied herbicide 320 g/ha
In short: as §3

[16] = tested on: lambsquarters; test: Test Example 4: herbicidal effect by soil treatment (Table 19, symbol O); format: in vivo, lambsquarters (Chenopodium album); details: amount of applied herbicide 320 g/ha
In short: as §3

[17] = tested on: chickweed; test: Test Example 4: herbicidal effect by soil treatment (Table 19, symbol P); format: in vivo, common chickweed (Stellaria media); details: amount of applied herbicide 320 g/ha
In short: as §3

[18] = tested on: false cleavers; test: Test Example 4: herbicidal effect by soil treatment (Table 19, symbol Q); format: in vivo, false cleavers (Galium spurium); details: amount of applied herbicide 320 g/ha
In short: as §3

[19] = tested on: persian speedwell; test: Test Example 4: herbicidal effect by soil treatment (Table 19, symbol R); format: in vivo, Persian speedwell (Veronica persica); details: amount of applied herbicide 320 g/ha
In short: as §3

[20] = tested on: southern crabgrass; test: Test Example 5: herbicidal effect by foliage application, plastic box (Table 20, symbol F); format: in vivo, southern crabgrass (Digitaria ciliaris); details: foliage application, 320 g/ha, evaluated three weeks after application
In short: (§4)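 Foliar spray test: emulsion formulation diluted in water to a set application rate, sprayed onto 14-day-old plants raised in diluvial soil at 25° C to 30° C under glass. Both herbicidal effect and crop effect rated visually three weeks later.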

[21] = tested on: green foxtail; test: Test Example 5: herbicidal effect by foliage application, plastic box (Table 20, symbol G); format: in vivo, green foxtail (Setaria viridis); details: foliage application, 320 g/ha, evaluated three weeks after application
In short: as §4

[22] = tested on: barnyard grass; test: Test Example 5: herbicidal effect by foliage application, plastic box (Table 20, symbol H); format: in vivo, barnyard grass (Echinochloa crus-galli); details: foliage application, 320 g/ha, evaluated three weeks after application
In short: as §4

[23] = tested on: wild oat; test: Test Example 5: herbicidal effect by foliage application, plastic box (Table 20, symbol I); format: in vivo, wild oat (Avena fatua); details: foliage application, 320 g/ha, evaluated three weeks after application
In short: as §4

[24] = tested on: blackgrass; test: Test Example 5: herbicidal effect by foliage application, plastic box (Table 20, symbol J); format: in vivo, blackgrass (Alopecurus myosuroides); details: foliage application, 320 g/ha, evaluated three weeks after application
In short: as §4

[25] = tested on: Italian ryegrass; test: Test Example 5: herbicidal effect by foliage application, plastic box (Table 20, symbol K); format: in vivo, Italian ryegrass (Lolium multiflorum); details: foliage application, 320 g/ha, evaluated three weeks after application
In short: as §4

[26] = tested on: windgrass; test: Test Example 5: herbicidal effect by foliage application, plastic box (Table 20, symbol L); format: in vivo, windgrass (Apera spica-venti); details: foliage application, 320 g/ha, evaluated three weeks after application
In short: as §4

[27] = tested on: velvetleaf; test: Test Example 5: herbicidal effect by foliage application, plastic box (Table 20, symbol M); format: in vivo, velvetleaf (Abutilon theophrasti); details: foliage application, 320 g/ha, evaluated three weeks after application
In short: as §4

[28] = tested on: redroot pigweed; test: Test Example 5: herbicidal effect by foliage application, plastic box (Table 20, symbol N); format: in vivo, redroot pigweed (Amaranthus retroflexus); details: foliage application, 320 g/ha, evaluated three weeks after application
In short: as §4

[29] = tested on: lambsquarters; test: Test Example 5: herbicidal effect by foliage application, plastic box (Table 20, symbol O); format: in vivo, lambsquarters (Chenopodium album); details: foliage application, 320 g/ha, evaluated three weeks after application
In short: as §4

[30] = tested on: chickweed; test: Test Example 5: herbicidal effect by foliage application, plastic box (Table 20, symbol P); format: in vivo, common chickweed (Stellaria media); details: foliage application, 320 g/ha, evaluated three weeks after application
In short: as §4

[31] = tested on: persian speedwell; test: Test Example 5: herbicidal effect by foliage application, plastic box (Table 20, symbol R); format: in vivo, Persian speedwell (Veronica persica); details: foliage application, 320 g/ha, evaluated three weeks after application
In short: as §4

CCCCOc1cccc(-c2sc3ccc(F)cc3c2-c2c(O)c(C)nn(C)c2=O)c1 [2-219]
Herbicidal effect on A: late watergrass (grade 0-5) [1]: 3 (Herbicidal rate of 40% or more and less than 70%)
Herbicidal effect on B: Japanese bulrush (grade 0-5) [2]: 0 (Herbicidal rate of 5% or less (almost no effect))
Herbicidal effect on C: oval-leafed pondweed (grade 0-5) [3]: 0 (Herbicidal rate of 5% or less (almost no effect))
herbicidal effect on H: barnyard grass [4]: 5 (Herbicidal rate of 90% or more (almost completely withered))
herbicidal effect on D: Chinese sprangletop [5]: 3 (Herbicidal rate of 40% or more and less than 70%)
herbicidal effect on E: rice flat sedge [6]: 3 (Herbicidal rate of 40% or more and less than 70%)
F: southern crabgrass, herbicidal effect rating [7]: 4 (Herbicidal rate of 70% or more and less than 90%)
G: green foxtail, herbicidal effect rating [8]: 4 (Herbicidal rate of 70% or more and less than 90%)
H: barnyard grass, herbicidal effect rating [9]: 5 (Herbicidal rate of 90% or more (almost completely withered))
I: wild oat, herbicidal effect rating [10]: 0 (Herbicidal rate of 5% or less (almost no effect))
J: blackgrass, herbicidal effect rating [11]: 0 (Herbicidal rate of 5% or less (almost no effect))
K: Italian ryegrass, herbicidal effect rating [12]: 0 (Herbicidal rate of 5% or less (almost no effect))
L: windgrass, herbicidal effect rating [13]: 0 (Herbicidal rate of 5% or less (almost no effect))
M: velvetleaf, herbicidal effect rating [14]: 1 (Herbicidal rate of 5% or more and less than 20%)
N: redroot pigweed, herbicidal effect rating [15]: 3 (Herbicidal rate of 40% or more and less than 70%)
O: lambsquarters, herbicidal effect rating [16]: 1 (Herbicidal rate of 5% or more and less than 20%)
P: chickweed, herbicidal effect rating [17]: 0 (Herbicidal rate of 5% or less (almost no effect))
Q: false cleavers, herbicidal effect rating [18]: 0 (Herbicidal rate of 5% or less (almost no effect))
R: persian speedwell, herbicidal effect rating [19]: 3 (Herbicidal rate of 40% or more and less than 70%)
herbicidal effect on F: southern crabgrass (criteria 0-5) [20]: 4 (Herbicidal rate of 70% or more and less than 90%)
herbicidal effect on G: green foxtail (criteria 0-5) [21]: 5 (Herbicidal rate of 90% or more (almost completely withered))
herbicidal effect on H: barnyard grass (criteria 0-5) [22]: 4 (Herbicidal rate of 70% or more and less than 90%)
herbicidal effect on I: wild oat (criteria 0-5) [23]: 0 (Herbicidal rate of 5% or less (almost no effect))
herbicidal effect on J: blackgrass (criteria 0-5) [24]: 0 (Herbicidal rate of 5% or less (almost no effect))
herbicidal effect on K: Italian ryegrass (criteria 0-5) [25]: 0 (Herbicidal rate of 5% or less (almost no effect))
herbicidal effect on L: windgrass (criteria 0-5) [26]: 0 (Herbicidal rate of 5% or less (almost no effect))
herbicidal effect on M: velvetleaf (criteria 0-5) [27]: 2 (Herbicidal rate of 20% or more and less than 40%)
herbicidal effect on N: redroot pigweed (criteria 0-5) [28]: 5 (Herbicidal rate of 90% or more (almost completely withered))
herbicidal effect on O: lambsquarters (criteria 0-5) [29]: 3 (Herbicidal rate of 40% or more and less than 70%)
herbicidal effect on P: chickweed (criteria 0-5) [30]: 5 (Herbicidal rate of 90% or more (almost completely withered))
herbicidal effect on R: persian speedwell (criteria 0-5) [31]: 5 (Herbicidal rate of 90% or more (almost completely withered))
